Where a name gives a salt, the structure may show the parent alone.
Experiments:
MARK4 [1] = molecular target: T1, MARK4 (Homo sapiens, UniProt Q96L34); assay: Isothermal titration calorimetry; type: binding; conditions: ITC, 25 °C, 20 µM MARK4; for Kd: 100 µM DP or 200 µM RT in syringe
T1 construct: made in house
T1 sequence (Q96L34 1-752): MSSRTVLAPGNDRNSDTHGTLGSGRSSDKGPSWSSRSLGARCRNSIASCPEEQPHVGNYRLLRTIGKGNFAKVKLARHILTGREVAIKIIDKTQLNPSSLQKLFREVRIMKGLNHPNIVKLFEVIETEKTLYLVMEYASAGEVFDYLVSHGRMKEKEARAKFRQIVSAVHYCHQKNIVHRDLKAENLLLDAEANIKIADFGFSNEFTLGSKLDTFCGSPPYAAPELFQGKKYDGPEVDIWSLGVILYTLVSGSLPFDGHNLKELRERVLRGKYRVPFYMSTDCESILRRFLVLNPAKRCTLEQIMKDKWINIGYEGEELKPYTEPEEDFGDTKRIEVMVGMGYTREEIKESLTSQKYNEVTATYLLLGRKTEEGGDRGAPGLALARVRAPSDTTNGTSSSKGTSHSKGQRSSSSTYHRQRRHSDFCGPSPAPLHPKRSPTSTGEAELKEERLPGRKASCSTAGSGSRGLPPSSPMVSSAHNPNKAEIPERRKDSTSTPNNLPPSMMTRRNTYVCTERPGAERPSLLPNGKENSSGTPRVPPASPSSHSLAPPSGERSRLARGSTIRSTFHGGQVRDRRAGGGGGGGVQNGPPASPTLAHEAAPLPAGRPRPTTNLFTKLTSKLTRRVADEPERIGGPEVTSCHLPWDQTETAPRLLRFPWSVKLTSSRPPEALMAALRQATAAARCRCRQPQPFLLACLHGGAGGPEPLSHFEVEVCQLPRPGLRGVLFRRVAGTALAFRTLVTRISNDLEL
Description: Isothermal titration calorimetry (ITC) measurements were carried out on a VP-ITC microcalorimeter (MicroCal, Inc, GE, MicroCal, Northampton, MA, USA) at 25 °C. All the solutions were degassed in thermovac for 20 min to remove air bubbles. For sample preparation, recombinant MARK4 was extensively dialyzed in 20 mM Tris buffer, pH 8.5. […] We used standard protocol to run the ITC in which the first injection was a false injection of 2 μL followed by injections of 10 μL of the ligands at a span of 260 s intervals into the sample cell. The stirring rate was maintained at 320 rpm. The obtained titration data were analyzed by Origin 8.0 software to estimate thermodynamic parameters such as stoichiometry of binding (n), enthalpy change (ΔH), an association constant (Ka).

MARK4 [2] = molecular target: T1, MARK4; assay: ATPase inhibition assay (malachite green, BIOMOL reagent); type: biochemical; conditions: MARK4 4 μM, ligand 0–20 μM, pre-incubated 60 min, 200 μM ATP, 25 °C; AAT Bioquest calculator
Description: The activity of MARK4 was measured using standard malachite green (BIOMOL® reagent, Enzo Life Sciences) microtitre-plate assay using previously-published protocols [17, 40].
Initially, MARK4 (4 μM) was pre-incubated with increasing concentrations of ligands at room temperature for 60 min in a 96-well plate. Subsequently, 200 μM of freshly-prepared ATP was mixed to the reaction mixture and incubated for 15–20 min at 25 °C. At the end of this time, BIOMOL® reagent was added and kept for 15–20 min. The intensity of color was spectrophotometrically measured at 620 nm.

MARK4 [3] = molecular target: T1, MARK4; assay: Fluorescence quenching binding study of MARK4 with DP and RT; conditions: for Kq (quenching rate constant): Kq=Ksv/τ0, τ0 2.7 × 10^−9 s; for Ksv (Stern−Volmer constant): MARK4 4 μM; for n (number of the binding site) / Kd: modified Stern−Volmer plot; for ΔG (change in Gibbs free energy): van't Hoff equation; for Kd: K (binding constant); for mode of fluorescence quenching of the MARK4 complex: from temperature dependency of Ksv and from Kq; for ΔH (change in enthalpy) / ΔS (change in entropy): van't Hoff plot over 293, 296, 298 K, same value printed in each temperature row
Source text: The observed fluorescence intensities were corrected for the inner filter effect. Obtained data were fitted into the Stern−Volmer and modified Stern−Volmer equations to estimate Stern-Volmer constant (Ksv), binding constant (Ka), and the number of binding sites (n).
Equation (1) (van’t Hoff equation) was used to find the thermodynamic parameters such as changes in enthalpy, entropy, and Gibbs free energy associated with the reaction. (1) ΔG=−RTLnK=ΔH−TΔS
K is the obtained binding constant, ΔH is the associated enthalpy change and ΔG is the associated free Gibbs energy change. ΔS denotes the associated entropy change with reaction, and R is the universal gas constant.
The slope of the van’t Hoff plot (LnK on Y-axis against 1/T on the X-axis) gives the value of −ΔH/R, and the intercept giving the value of ΔS/R.
The intrinsic fluorescence of protein due to tryptophan is often used to get an insight into the ligand binding to the protein because binding often leads to changes in the surrounding environment around tryptophan residues which corresponds to observed changes in fluorescence. The recombinant MARK4 was expressed and purified to carry out all binding studies.
Ksv was obtained from the slope of this plot at a fixed intercept after linear regression using the Stern−Volmer equation (Equation (2)). (2) F0/F=1+Ksv[C]
The SV plot of combined quenching (both static and dynamic) is characteristically an upward curvature while the linear Stern−Volmer plot depicts that only one mode of quenching was operative. […] The linear plot and upward curvature are not enough to define the quenching type. […] Equation (3) uses Ksv and τo (average integral fluorescence lifetime of tryptophan) (2.7 × 10^−9 s) to find biomolecular quenching rate constant (Kq) (3) Kq=Ksv/τ0
To get insights into other binding parameters, Equation (4) was used. This equation gives binding constant (K) and the number of binding sites (n). (4) logF0−F/F=logK+nlog[C]

SMILES | ∆S1 (MARK4 [1]) [cal/mol/deg] | ∆S2 (MARK4 [1]) [cal/mol/deg] | TΔS (MARK4 [3]; 293 K) [kJ/mol] | Kq (quenching rate constant) (MARK4 [3]; 293 K) | n (number of the binding site) (MARK4 [3]; 293 K) | ΔG (change in Gibbs free energy) (MARK4 [3]; 293 K) [kJ/mol] | TΔS (MARK4 [3]; 296 K) [kJ/mol] | Kq (quenching rate constant) (MARK4 [3]; 296 K) | n (number of the binding site) (MARK4 [3]; 296 K) | ΔG (change in Gibbs free energy) (MARK4 [3]; 296 K) [kJ/mol] | TΔS (MARK4 [3]; 298 K) [kJ/mol] | Kq (quenching rate constant) (MARK4 [3]; 298 K) | n (number of the binding site) (MARK4 [3]; 298 K) | mode of fluorescence quenching of the MARK4 complex (MARK4 [3]) | ΔH (change in enthalpy) (MARK4 [3]) [kJ/mol] | ΔS (change in entropy) (MARK4 [3]) [cal mol^−1K^−1] | other results
CCN(C)C(=O)Oc1cccc([C@H](C)N(C)C)c1 [RT, rivastigmine tartrate] | 31.1 | -700 | -558.48 | 1.25 10^13 M^−1 s^−1 | 1.66 | -44.94 | -568.02 | 1.44 10^13 M^−1 s^−1 | 1.311 | -35.4 | -577.56 | 2.14 10^13 M^−1 s^−1 | 0.94 | combination of static and dynamic modes of quenching | -603.46 | −455.78 | Kd (MARK4 [1]; read-out: Ka1 (association constant) (converted)): 9.8 µM; Kd (MARK4 [1]; read-out: Ka2 (association constant) (converted)): 8.55 µM; Kd (MARK4 [1]; read-out: Ka3 (association constant) (converted)): 5 µM; IC50 (MARK4 [2]): 6.74 µM; Ksv (Stern−Volmer constant) (MARK4 [3]; 293 K, RT 0−9 µM): 3.4 10^4 M^−1; Ksv (Stern−Volmer constant) (MARK4 [3]; 296 K, RT 0−9 µM): 3.9 10^4 M^−1; Ksv (Stern−Volmer constant) (MARK4 [3]; 298 K, RT 0−9 µM): 5.8 10^4 M^−1; ΔG (change in Gibbs free energy) (MARK4 [3]; 298 K): -25.9 kJ/mol; Kd (MARK4 [3]; 293 K): 0.00952 µM; Kd (MARK4 [3]; 296 K): 0.625 µM; Kd (MARK4 [3]; 298 K): 50 µM
COc1cc2c(cc1OC)C(=O)C(CC1CCN(Cc3ccccc3)CC1)C2 (stereo not drawn) [DP, Donepezil] | 51.2 | -207 | -530.49 | 6.85 10^14 M^−1 s^−1 | 1.66 | -44.77 | -535.93 | 5.81 10^14 M^−1 s^−1 | 1.311 | -39.3 | -539.53 | 5.03 10^14 M^−1 s^−1 | 0.1 | static mode | -575.3 | −432.749 | ∆S3 (MARK4 [1]): 368 cal/mol/deg; ∆S4 (MARK4 [1]): -327 cal/mol/deg; Ksv (Stern−Volmer constant) (MARK4 [3]; 293 K, DP 0−200 nM): 18.5 10^5 M^−1; Ksv (Stern−Volmer constant) (MARK4 [3]; 296 K, DP 0−200 nM): 15.7 10^5 M^−1; Ksv (Stern−Volmer constant) (MARK4 [3]; 298 K, DP 0−200 nM): 13.6 10^5 M^−1

— PMC7277793 (Biomolecules, 2020)
